How the values were obtained:
[1] = target: T1, human sphingosine-1-phosphate receptor 1 (S1P1) (Homo sapiens (Human), UniProt P21453); test: Inhibition of cAMP production (HTRF cAMP HiRange), S1P1 CHO-K1 cells; format: cell-based; conditions: for Emax: CHO-K1, efficacy (SPAN) normalized to fingolimod, read-out: hS1P1 cAMP SPAN; for hS1P1 cAMP pEC50: inhibition of cAMP production, S1P1 CHO-K1 cells
Description: (§1) Stable clonal Chinese hamster ovary K1 (CHO-K1) cells co-expressing EA-β-arrestin2 and the human sphingosine-1-phosphate receptor 1 (NM_001400, S1P1) with a C-terminal Prolink™ tag were purchased from DiscoverX corporation (Cat #: 93-0207C2).
(§2) Cell lines were cultured in AssayComplete™ Media 6 (DiscoverX Corporation, Cat #: 920018GF2) at 37° C. and 5% CO2 in a humidified CO2 and temperature-controlled incubator. To begin assay plating, cells were washed with dulbecco's phosphate buffered saline (CellGro, Cat #: 21-031-CV) and lifted from the culturing flask by incubation (37° C., 5 min) with CellStripper (Cellgro, Cat #: 25-056-CI). […] Plated cells were incubated overnight at 37° C. and 5% CO2 in a humidified CO2 and temperature-controlled incubator. Detecting Inhibition of cAMP Production
Agonist-promoted G-protein responses were determined by measuring changes in intracellular cAMP using the HTRF® cAMP HiRange kit (CisBio, Cat #: 62AM6PEJ) based on time-resolved fluorescence resonance energy transfer (TR-FRET) technology. […] Following a 30-minute incubation at 37° C. and 5% CO2 in a humidified CO2 and temperature-controlled incubator, the components of the cAMP HiRange kit were added as per the manufacturer's instructions. After an hour incubation at room temperature, plates were analyzed by a BMG PheraStar microplate reader.
(§3) The tables below include the efficacy of the compound as compared to a positive control, referred to as “SPAN”. These values are normalized to fingolimod, a known agonist of the sphingosine-1-phosphate 1 receptor. The tables also include potency values (pEC50) for modulating discrete receptor-mediated activities (inhibition of cAMP production and […] recruitment).
Target sequence in this assay (P21453 whole entry, looked up): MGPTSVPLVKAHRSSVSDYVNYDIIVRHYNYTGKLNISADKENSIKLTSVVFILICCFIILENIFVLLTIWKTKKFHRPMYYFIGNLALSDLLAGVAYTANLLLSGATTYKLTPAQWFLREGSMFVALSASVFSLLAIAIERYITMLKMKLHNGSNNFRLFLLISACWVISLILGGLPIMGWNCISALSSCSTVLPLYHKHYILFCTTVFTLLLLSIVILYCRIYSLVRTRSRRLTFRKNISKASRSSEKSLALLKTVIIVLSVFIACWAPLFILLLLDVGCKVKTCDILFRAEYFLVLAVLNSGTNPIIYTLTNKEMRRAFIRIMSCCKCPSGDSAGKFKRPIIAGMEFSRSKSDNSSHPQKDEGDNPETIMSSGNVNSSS

[2] = target: T1, human sphingosine-1-phosphate receptor 1 (S1P1); test: β-Arrestin2 recruitment assay (PathHunter), S1P1 CHO-K1 cells; format: cell-based; conditions: for Emax: CHO-K1, efficacy (SPAN) normalized to fingolimod, read-out: hS1P1 B-arrestin2 SPAN; for hS1P1 B-arrestin2 pEC50: β-arrestin2 recruitment, S1P1 CHO-K1 cells
Description: as §1, §2
Target sequence in this assay (P21453 whole entry, looked up): as above
Target sequence in this assay (P32121 whole entry partner, looked up): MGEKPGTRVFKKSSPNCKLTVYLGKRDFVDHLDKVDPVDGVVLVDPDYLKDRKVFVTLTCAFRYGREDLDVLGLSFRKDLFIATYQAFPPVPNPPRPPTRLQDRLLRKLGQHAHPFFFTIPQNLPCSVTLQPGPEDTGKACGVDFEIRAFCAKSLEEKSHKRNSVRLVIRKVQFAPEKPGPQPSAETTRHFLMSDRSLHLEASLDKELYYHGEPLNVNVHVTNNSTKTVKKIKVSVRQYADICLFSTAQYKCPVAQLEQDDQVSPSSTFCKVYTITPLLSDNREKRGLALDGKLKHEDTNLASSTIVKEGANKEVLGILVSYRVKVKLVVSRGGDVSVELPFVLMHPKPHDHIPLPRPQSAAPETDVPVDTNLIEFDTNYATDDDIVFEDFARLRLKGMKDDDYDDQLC
Agonist-promoted β-arrestin2 recruitment to the sphingosine-1-phosphate 1 receptor was determined using the β-arrestin PathHunter®) Detection kit (DiscoverX Corporation, Cat #: 93-0001). […] In cells that stably express these fusion proteins, stimulation with a cognate agonist results in the interaction of […] and the Prolink™-tagged GPCR. This allows the complementation of the two β-galactosidase fragments and results in the formation of a functional enzyme with β-galactosidase activity. […] Following a 60 minute incubation at 37° C. and 5% CO2 in a humidified CO2 and temperature-controlled incubator, the components of the β-arrestin PathHunter® Detection kit were added as per the manufacturer's instructions. After an hour incubation at room temperature, plates were analyzed by a BMG PheraStar microplate reader.
as §3

SMILES | Emax [1] [%] | hS1P1 cAMP pEC50 [1] | Emax [2] [%] | hS1P1 B-arrestin2 pEC50 [2]
CC(C)Oc1ccc(-c2ccc(-c3ccc4c(c3)nnn4C(C)C)cc2)cc1C#N [Compound 506, 4-isopropoxy-4′-(1-isopropyl-1H-benzo[d][1,2,3]triazol-5-yl)-[1,1′-biphenyl]-3-carbonitrile] | < 75 | >6.5 | < 75 | >5
COc1ccccc1-c1nnc(-c2ccc3c(c2)nnn3C(C)C)s1 [Compound 144, 5-[5-(2-methoxyphenyl)-1,3,4-thiadiazol-2-yl]-1-(propan-2-yl)-1H-1,2,3-benzotriazole] |  | <6.5 |  | >5
CCCn1nnc2cc(-c3nc(-c4ccc(F)cc4)no3)ccc21 [Compound 5, 5-[3-(4-fluorophenyl)-1,2,4-oxadiazol-5-yl]-1-propyl-1H-1,2,3-benzotriazole] |  | <6.5 |  | <5
COc1ccc(-c2nc(-c3ccc4c(ccn4C(C)C)c3)no2)cc1 [Compound 393, 3-(1-isopropyl-1H-indol-5-yl)-5-(4-methoxyphenyl)-1,2,4-oxadiazole] |  | <6.5 |  | <5
CCC1(CC)CC(=O)c2cc(-c3noc(-c4cccnc4)n3)ccc2O1 [Compound 559, 2,2-diethyl-6-(5-(pyridin-3-yl)-1,2,4-oxadiazol-3-yl)chroman-4-one] |  | >6.5 |  | >5
Cc1cc(C)cc(Cc2noc(-c3ccc4c(c3)nnn4C(C)C)n2)c1 [Compound 126, 5-{3-[(3,5-dimethylphenyl)methyl]-1,2,4-oxadiazol-5-yl}-1-(propan-2-yl)-1H-1,2,3-benzotriazole] | < 75 | <6.5 | < 75 | <5
CC(C)n1nnc2cc(-c3nc(-c4ccccc4Br)no3)cnc21 [Compound 413, 3-(2-bromophenyl)-5-[3-(propan-2-yl)-3H-[1,2,3]triazolo[4,5-b]pyridin-6-yl]-1,2,4-oxadiazole] |  | >6.5 |  | >5
O=C1CC(CO)(CO)Oc2ccc(-c3nc(-c4cccnc4)no3)cc21 [Compound 478, 2,2-bis(hydroxymethyl)-6-[3-(pyridin-3-yl)-1,2,4-oxadiazol-5-yl]-3,4-dihydro-2H-1-benzopyran-4-one] |  | <6.5 |  | <5
COc1cccc(-c2nc(-c3ccc4[nH]ccc4c3)ns2)c1 [Compound 364, 5-[5-(3-methoxyphenyl)-1,2,4-thiadiazol-3-yl]-1H-indole] |  | <6.5 |  | <5
CCC1(CC)CC(=O)c2cc(-c3nc(-c4ccc(O)cc4)no3)ccc2O1 [Compound 72, 2,2-diethyl-6-[3-(4-hydroxyphenyl)-1,2,4-oxadiazol-5-yl]chroman-4-one] | > 75 | >6.5 | > 75 | >5
CC1CC(=O)c2ccc(-c3nc(-c4ccncc4)no3)cc2O1 (centres unmarked) [Compound 536, 2-methyl-7-[3-(pyridin-4-yl)-1,2,4-oxadiazol-5-yl]-3,4-dihydro-2H-1-benzopyran-4-one] |  | <6.5 |  | >5
CCC1(CC)CC(=O)c2cc(-c3nc(-c4ccccc4O)no3)ccc2O1 [Compound 187, 2,2-diethyl-6-[3-(2-hydroxyphenyl)-1,2,4-oxadiazol-5-yl]chroman-4-one] | < 75 | <6.5 | > 75 | <5
Cc1nc(-c2ccccc2)oc1-c1cnc2c(c1)CC(=O)N2 [Compound 360, 5-(4-methyl-2-phenyl-1,3-oxazol-5-yl)-1H,2H,3H-pyrrolo[2,3-b]pyridin-2-one] |  | <6.5 |  | <5
O=C1CNc2ccc(-c3nc(-c4cn[nH]c4)no3)cc2N1 [Compound 645, 7-[3-(1H-pyrazol-4-yl)-1,2,4-oxadiazol-5-yl]-1,2,3,4-tetrahydroquinoxalin-2-one] |  | <6.5 |  | <5
CCC1(CC)CC(=O)c2cc(-c3nc(-c4ccc5c(c4)CC(=O)N5)no3)ccc2O1 [Compound 416, 5-(5-(2,2-diethyl-4-oxochroman-6-yl)-1,2,4-oxadiazol-3-yl)indolin-2-one] |  | >6.5 |  | >5
c1ccc(-c2noc(-c3ccc4c(c3)nnn4C3CCCCC3)n2)cc1 [Compound 292, 1-cyclohexyl-5-(3-phenyl-1,2,4-oxadiazol-5-yl)-1H-1,2,3-benzotriazole] | < 75 | <6.5 | < 75 | <5
FC(F)(F)Oc1ccccc1-c1nc(-c2ccc3c(c2)nnn3C2CCCC2)no1 [Compound 84, 3-(1-cyclopentyl-1H-benzo[d][1,2,3]triazol-5-yl)-5-(2-(trifluoromethoxy)phenyl)-1,2,4-oxadiazole] | < 75 | <6.5 | > 75 | >5
CC(C)n1nnc2cc(-c3nc(-c4ccccc4C(F)(F)F)co3)ccc21 [Compound 432, 1-(propan-2-yl)-5-{4-[2-(trifluoromethyl)phenyl]-1,3-oxazol-2-yl}-1H-1,2,3-benzotriazole] | > 75 | >6.5 | > 75 | >5
CC(C)n1nnc2cc(-c3nc(-c4ccccc4F)co3)ccc21 [Compound 21, 5-[4-(2-fluorophenyl)-1,3-oxazol-2-yl]-1-(propan-2-yl)-1H-1,2,3-benzotriazole] |  | <6.5 |  | <5
COc1ccccc1-c1nc(-c2ccc3c(c2)nnn3CC(C)(C)CO)no1 [Compound 525, 3-(5-(5-(2-methoxyphenyl)-1,2,4-oxadiazol-3-yl)-1H-benzo[d][1,2,3]triazol-1-yl)-2,2-dimethylpropan-1-ol] |  | <6.5 |  | <5
CC(C)n1ncc2cc(-c3nc(-c4ccccc4OC(F)(F)F)no3)ccc21 [Compound 331, 5-(1-isopropyl-1H-indazol-5-yl)-3-(2-(trifluoromethoxy)phenyl)-1,2,4-oxadiazole] | > 75 | >6.5 | > 75 | >5
CC(C)n1ccc2cc(-c3nc(-c4ccccc4C(F)(F)F)cs3)ccc21 [Compound 404, 2-(1-isopropylindol-5-yl)-4-[2-(trifluoromethyl)phenyl]thiazole] | > 75 | <6.5 | < 75 | <5
CCC1(CC)CC(=O)c2cc(-c3nc(-c4ccc(Cl)cc4)no3)ccc2O1 [Compound 68, 6-[3-(4-chlorophenyl)-1,2,4-oxadiazol-5-yl]-2,2-diethyl-chroman-4-one] | < 75 | <6.5 | < 75 | <5
CCC1(CC)CC(=O)c2cc(-c3nc(-c4cccc(C)c4)no3)ccc2O1 [Compound 225, 2,2-diethyl-6-(3-(m-tolyl)-1,2,4-oxadiazol-5-yl)chroman-4-one] |  | <6.5 |  | >5

Reference: patent publication US11912693B2, “Compounds for modulating S1P1 activity and methods of using the same” (TREVENA, INC., priority 2017, dated 2024)
